Legend:
Type in all cases: in vivo
[1] = tested on: Diabrotica Balteata (Corn Root Worm); experiment: Example B1: Diabrotica balteata (corn root worm), maize sprouts sprayed, L2 larvae; conditions: 96 h, application rate 200 ppm, 4 days after infestation, read-out: effect in at least one of the two categories (mortality or growth inhibition)
Procedure, shortened: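 Maize sprouts on agar sprayed with aqueous dilutions of 10,000 ppm DMSO stocks, dried, then infested with 6–10 L2 larvae per well. Mortality and growth inhibition scored against untreated samples 4 days after infestation; rates of 200 ppm.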

[2] = tested on: Euschistus heros (Neotropical Brown Stink Bug); experiment: Example B2: Euschistus heros (neotropical brown stink bug), soybean leaves sprayed, N2 nymphs; conditions: 120 h, application rate 200 ppm, 5 days after infestation, read-out: effect in at least one of the two categories (mortality or growth inhibition)
Procedure, shortened: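 Soybean leaves on agar sprayed with aqueous test solutions made from 10,000 ppm DMSO stocks, dried, then infested with N2 nymphs. Mortality and growth inhibition scored versus untreated samples 5 days after infestation; activity threshold at 200 ppm.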

[3] = tested on: Chilo suppressalis (Striped Rice Stemborer); experiment: Example B4: Chilo suppressalis (striped rice stemborer), artificial diet, L2 larvae; conditions: 144 h, application rate 200 ppm, 6 days after infestation
Procedure, shortened: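 L2 larvae (6-8 per well) placed on artificial diet treated with aqueous test solutions prepared from 10,000 ppm DMSO stocks, after drying. Mortality, anti-feeding and growth inhibition scored against untreated samples 6 days after infestation; control means at least one category exceeds untreated.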

[4] = tested on: Plutella xylostella (Diamond Back Moth); experiment: Example B5: Plutella xylostella (diamond back moth), artificial diet, 24-well, eggs; conditions: 192 h, application rate 200 ppm, 8 days after infestation, read-out: effect in at least one of the two categories (mortality or growth inhibition)
Procedure, shortened: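 Artificial diet in 24-well plates treated with aqueous dilutions of 10,000 ppm DMSO stocks, dried, then infested with Plutella eggs. Mortality and growth inhibition scored against untreated samples 8 days after infestation; activity rated at 200 ppm application rate.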

[5] = tested on: Myzus persicae (Green Peach Aphid); experiment: Example B6: Myzus persicae (green peach aphid), feeding/contact activity; conditions: 144 h, application rate 200 ppm, 6 days after infestation
Procedure: Example B6: Myzus persicae (Green Peach Aphid):Feeding/Contact Activity
(§1) Sunflower leaf discs were placed onto agar in a 24-well microtiter plate and sprayed with aqueous test solutions prepared from 10,000 ppm DMSO stock solutions. After drying, the leaf discs were infested with an aphid population of mixed ages. The samples were assessed for mortality 6 days after infestation.

[6] = tested on: Myzus persicae (Green Peach Aphid); experiment: Example B7: Myzus persicae (green peach aphid), systemic activity; conditions: 144 h, test rate 24 ppm, pea seedling roots in test solution, 6 days
Procedure: Example B7: Myzus persicae (Green Peach Aphid), Systemic Activity
Roots of pea seedlings infested with an aphid population of mixed ages were placed directly into aqueous test solutions prepared from 10,000 DMSO stock solutions. The samples were assessed for mortality 6 days after placing seedlings into test solutions.

[7] = tested on: Myzus persicae (Green Peach Aphid); experiment: Example B8: Myzus persicae (green peach aphid), intrinsic activity; conditions: 120 h, test rate 12 ppm, sucrose solution, 24-well, 5 days after infestation
Procedure, shortened: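 Compounds diluted from 10,000 ppm DMSO stock were mixed with sucrose solution under stretched Parafilm in a sachet feeding setup, with aphid-infested pea seedlings placed on the membrane. Mortality was scored 5 days after infestation.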

[8] = tested on: Spodoptera littoralis (Egyptian Cotton Leaf Worm); experiment: Example B9: Spodoptera littoralis (Egyptian cotton leaf worm), cotton leaf discs sprayed, L1 larvae; conditions: foliar, 72 h, application rate 200 ppm, 3 days after infestation
Procedure, shortened: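 Leaf discs on agar sprayed with aqueous dilutions from 10,000 ppm DMSO stock, dried, then infested with five L1 larvae. Mortality, anti-feeding and growth inhibition scored against untreated samples 3 days after infestation; control counted when any category exceeds untreated.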

[9] = tested on: Spodoptera littoralis (Egyptian Cotton Leaf Worm); experiment: Example B10: Spodoptera littoralis (Egyptian cotton leaf worm), uptake by lettuce roots from agar, eggs; conditions: 144 h, test rate 12.5 ppm, lettuce root uptake, 6 days after infestation, read-out: effect in at least one of the three categories (mortality, anti-feeding, or growth inhibition)
Text: Example B10: Spodoptera littoralis (Egyptian Cotton Leaf Worm)
Test compounds were applied by pipette from 10,000 ppm DMSO stock solutions into 24-well plates and mixed with agar. Lettuce seeds were placed onto the agar and the multi well plate was closed by another plate which contained also agar. After 7 days the compound was absorbed by the roots and the lettuce grew into the lid plate. The lettuce leaves were then cut off into the lid plate. Spodoptera eggs were pipetted through a plastic stencil onto a humid gel blotting paper and the lid plate was closed with it. The samples were assessed for mortality, anti-feedant effect and growth inhibition in comparison to untreated samples 6 days after infestation.
The following compounds gave an effect of at least 80% in at least one of the three categories (mortality, anti-feeding, or growth inhibition) at a test rate of 12.5 ppm: […]

[10] = tested on: Thrips tabaci (Onion Thrips); experiment: Example B12: Thrips tabaci (onion thrips), feeding/contact activity; conditions: 144 h, application rate 200 ppm, mixed ages, 6 days after infestation
Procedure: Example B12: Thrips tabaci (Onion Thrips) Feeding/Contact Activity
as §1, with “on” for “onto”, “in” for “in a”, “plates” for “plate”, “drying” for “drying,”, “a thrips” for “an aphid”

[11] = tested on: Myzus persicae (Green Peach Aphid); experiment: Example B13: activity against Myzus persicae (green peach aphid), 96-well sucrose solution; conditions: 120 h, application rate 50 ppm, 5 days after infestation
Procedure, shortened: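 Compounds, from 10,000 ppm DMSO stocks, mixed into sucrose solution in wells under stretched Parafilm, with aphids placed on the membrane in an inverted feeding setup. Mortality scored 5 days after infestation.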

[12] = tested on: Plutella xylostella (Diamondback Moth); experiment: Example B14: activity against Plutella xylostella (diamondback moth), 96-well artificial diet; conditions: 216 h, application rate 500 ppm, 9 days after infestation
Procedure, shortened: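 Diet in 96-well plates was treated with aqueous dilutions of 10,000 ppm DMSO stocks, dried, and infested with 30 eggs per well via a netted lid; hatching L1 larvae fed on the diet. Mortality scored 9 days after infestation.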

CC(c1ncnn1-c1ncccn1)N(CC1CC1)C(=O)c1cc([S+]([O-])C(F)(F)F)cc(C(F)(F)F)c1 (centres unmarked) [P26, N-(cyclopropylmethyl)-N-[1-(2-pyrimidin-2-yl-1,2,4-triazol-3-yl)ethyl]-3-(trifluoromethyl)-5-(trifluoromethylsulfinyl)benzamide]
≥ 80%: percent effect (mortality or growth inhibition) at 200 ppm [1] | percent effect (mortality or growth inhibition) at 200 ppm [2] | percent control (mortality, anti-feedant effect or growth inhibition) at 200 ppm [3] | percent effect (mortality or growth inhibition) at 200 ppm [4] | mortality at 200 ppm [5] | mortality at 24 ppm [6] | mortality at 12 ppm [7] | percent control (mortality, anti-feedant effect or growth inhibition) at 200 ppm [8] | percent effect (mortality, anti-feeding or growth inhibition) at 12.5 ppm [9] | mortality at 200 ppm [10] | mortality at 50 ppm [11] | mortality at 500 ppm [12]

CC(c1ncnn1-c1ncccn1)N(CC1CC1)C(=O)c1cc(C(F)(F)F)cc(C(C)(C)C#N)c1 (centres unmarked) [P35, 3-(1-cyano-1-methyl-ethyl)-N-(cyclopropylmethyl)-N-[1-(2-pyrimidin-2-yl-1,2,4-triazol-3-yl)ethyl]-5-(trifluoromethyl)benzamide]
≥ 80%: percent effect (mortality or growth inhibition) at 200 ppm [1] | percent effect (mortality or growth inhibition) at 200 ppm [2] | percent effect (mortality or growth inhibition) at 200 ppm [4] | mortality at 24 ppm [6] | mortality at 12 ppm [7] | percent control (mortality, anti-feedant effect or growth inhibition) at 200 ppm [8] | mortality at 200 ppm [10] | mortality at 50 ppm [11] | mortality at 500 ppm [12]

CC(c1ncnn1-c1ncccn1)N(CC1CC1)C(=O)c1cc(C2CC2C(F)(F)F)cc(C(F)(F)F)c1 (centres unmarked) [P42, N-(cyclopropylmethyl)-N-[1-(2-pyrimidin-2-yl-1,2,4-triazol-3-yl)ethyl]-3-(trifluoromethyl)-5-[2-(trifluoromethyl)cyclopropyl]benzamide]
≥ 80%: percent effect (mortality or growth inhibition) at 200 ppm [1] | percent effect (mortality or growth inhibition) at 200 ppm [2] | percent control (mortality, anti-feedant effect or growth inhibition) at 200 ppm [3] | percent effect (mortality or growth inhibition) at 200 ppm [4] | mortality at 200 ppm [5] | mortality at 12 ppm [7] | percent control (mortality, anti-feedant effect or growth inhibition) at 200 ppm [8] | percent effect (mortality, anti-feeding or growth inhibition) at 12.5 ppm [9] | mortality at 200 ppm [10] | mortality at 50 ppm [11] | mortality at 500 ppm [12]

CC(c1ncnn1-c1ncccn1)N(CC1CC1)C(=O)c1cc(C(F)(F)F)cc(C2(C#N)CC2)c1 (centres unmarked) [P46, 3-(1-cyanocyclopropyl)-N-(cyclopropylmethyl)-N-[1-(2-pyrimidin-2-yl-1,2,4-triazol-3-yl)ethyl]-5-(trifluoromethyl)benzamide]
≥ 80%: percent effect (mortality or growth inhibition) at 200 ppm [1] | percent effect (mortality or growth inhibition) at 200 ppm [2] | percent effect (mortality or growth inhibition) at 200 ppm [4] | mortality at 200 ppm [5] | mortality at 24 ppm [6] | mortality at 12 ppm [7] | percent control (mortality, anti-feedant effect or growth inhibition) at 200 ppm [8] | mortality at 200 ppm [10] | mortality at 50 ppm [11] | mortality at 500 ppm [12]

CC(c1ncnn1-c1ncccn1)N(CC1CC1)C(=O)c1cc(C(F)(F)F)cc(C(F)(F)C2CC2)c1 (centres unmarked) [P49, 3-[cyclopropyl(difluoro)methyl]-N-(cyclopropylmethyl)-N-[1-(2-pyrimidin-2-yl-1,2,4-triazol-3-yl)ethyl]-5-(trifluoromethyl)benzamide]
≥ 80%: percent effect (mortality or growth inhibition) at 200 ppm [1] | percent effect (mortality or growth inhibition) at 200 ppm [2] | percent control (mortality, anti-feedant effect or growth inhibition) at 200 ppm [3] | percent effect (mortality or growth inhibition) at 200 ppm [4] | mortality at 12 ppm [7] | percent control (mortality, anti-feedant effect or growth inhibition) at 200 ppm [8] | percent effect (mortality, anti-feeding or growth inhibition) at 12.5 ppm [9] | mortality at 200 ppm [10] | mortality at 50 ppm [11] | mortality at 500 ppm [12]

CC(c1ncnn1-c1ncccn1)N(CC1CC1)C(=O)c1cc(C2CC2(F)F)cc(C(F)(F)F)c1 (centres unmarked) [P50, N-(cyclopropylmethyl)-3-(2,2-difluorocyclopropyl)-N-[1-(2-pyrimidin-2-yl-1,2,4-triazol-3-yl)ethyl]-5-(trifluoromethyl)benzamide]
≥ 80%: percent effect (mortality or growth inhibition) at 200 ppm [1] | percent control (mortality, anti-feedant effect or growth inhibition) at 200 ppm [3] | percent effect (mortality or growth inhibition) at 200 ppm [4] | mortality at 200 ppm [5] | mortality at 12 ppm [7] | percent control (mortality, anti-feedant effect or growth inhibition) at 200 ppm [8] | percent effect (mortality, anti-feeding or growth inhibition) at 12.5 ppm [9] | mortality at 200 ppm [10] | mortality at 50 ppm [11] | mortality at 500 ppm [12]

Cc1nc(C(C)NC(=O)c2cc(C(F)(F)F)cc(C(C)(C)C#N)c2)n(-c2ncccn2)n1 (centres unmarked) [P82, 3-(1-cyano-1-methyl-ethyl)-N-[1-(5-methyl-2-pyrimidin-2-yl-1,2,4-triazol-3-yl)ethyl]-5-(trifluoromethyl)benzamide]
≥ 80%: percent effect (mortality or growth inhibition) at 200 ppm [1] | percent effect (mortality or growth inhibition) at 200 ppm [2] | percent control (mortality, anti-feedant effect or growth inhibition) at 200 ppm [3] | percent effect (mortality or growth inhibition) at 200 ppm [4] | mortality at 200 ppm [5] | mortality at 24 ppm [6] | mortality at 12 ppm [7] | percent control (mortality, anti-feedant effect or growth inhibition) at 200 ppm [8]

CC(NC(=O)c1cc(C(F)(F)F)cc(C(C)(C)C#N)c1)c1ncnn1-c1ncccn1 (centres unmarked) [P84, 3-(1-cyano-1-methyl-ethyl)-N-[1-(2-pyrimidin-2-yl-1,2,4-triazol-3-yl)ethyl]-5-(trifluoromethyl)benzamide]
≥ 80%: percent effect (mortality or growth inhibition) at 200 ppm [1] | percent effect (mortality or growth inhibition) at 200 ppm [2] | percent control (mortality, anti-feedant effect or growth inhibition) at 200 ppm [3] | percent effect (mortality or growth inhibition) at 200 ppm [4] | mortality at 24 ppm [6] | mortality at 12 ppm [7] | percent control (mortality, anti-feedant effect or growth inhibition) at 200 ppm [8]

CC(c1ncnn1-c1ncccn1)N(CC1CC1)C(=O)c1cc(C(F)(F)F)cc(S(=O)(=O)C(F)(F)F)c1 (centres unmarked) [P89, N-(cyclopropylmethyl)-N-[1-(2-pyrimidin-2-yl-1,2,4-triazol-3-yl)ethyl]-3-(trifluoromethyl)-5-(trifluoromethylsulfonyl)benzamide]
≥ 80%: percent effect (mortality or growth inhibition) at 200 ppm [1] | percent effect (mortality or growth inhibition) at 200 ppm [2] | percent control (mortality, anti-feedant effect or growth inhibition) at 200 ppm [3] | percent effect (mortality or growth inhibition) at 200 ppm [4] | mortality at 200 ppm [5] | mortality at 24 ppm [6] | mortality at 12 ppm [7] | percent control (mortality, anti-feedant effect or growth inhibition) at 200 ppm [8] | percent effect (mortality, anti-feeding or growth inhibition) at 12.5 ppm [9] | mortality at 200 ppm [10] | mortality at 50 ppm [11] | mortality at 500 ppm [12]

From US20210267203A1, “PESTICIDALLY ACTIVE AZOLE-AMIDE COMPOUNDS” (SYNGENTA PARTICIPATIONS AG, priority 2018, published 2021)
